Molecules are shown by their SMILES. The source made the active and inactive calls. The calls are words filed in the database; no cut-off is given here.

Format in all cases: cell-based
The target in test [1] is T1, Toll-like receptor 4 (Mus musculus) (UniProt Q9QUK6).
T1 sequence (whole entry): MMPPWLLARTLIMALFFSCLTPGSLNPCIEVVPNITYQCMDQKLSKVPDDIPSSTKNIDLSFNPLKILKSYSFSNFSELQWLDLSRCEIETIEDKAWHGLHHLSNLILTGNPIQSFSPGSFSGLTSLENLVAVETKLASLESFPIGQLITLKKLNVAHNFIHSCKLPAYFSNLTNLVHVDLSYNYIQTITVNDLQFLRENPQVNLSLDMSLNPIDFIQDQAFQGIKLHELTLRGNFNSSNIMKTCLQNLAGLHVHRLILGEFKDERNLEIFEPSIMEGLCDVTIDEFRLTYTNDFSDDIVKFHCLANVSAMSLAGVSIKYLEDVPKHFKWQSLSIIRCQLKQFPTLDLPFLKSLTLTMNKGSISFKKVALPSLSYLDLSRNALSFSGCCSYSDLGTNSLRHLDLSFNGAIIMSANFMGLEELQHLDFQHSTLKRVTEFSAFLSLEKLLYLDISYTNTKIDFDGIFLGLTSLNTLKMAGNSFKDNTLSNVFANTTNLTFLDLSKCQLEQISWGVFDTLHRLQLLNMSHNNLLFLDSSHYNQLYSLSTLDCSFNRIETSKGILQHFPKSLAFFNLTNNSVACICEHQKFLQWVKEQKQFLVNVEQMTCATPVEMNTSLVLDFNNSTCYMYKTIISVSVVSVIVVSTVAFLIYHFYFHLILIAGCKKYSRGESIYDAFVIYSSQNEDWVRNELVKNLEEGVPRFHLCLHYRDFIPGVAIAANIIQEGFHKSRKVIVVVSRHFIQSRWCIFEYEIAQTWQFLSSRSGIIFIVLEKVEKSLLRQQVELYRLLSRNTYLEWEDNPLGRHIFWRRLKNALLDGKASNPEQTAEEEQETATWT
Briefly: Inhibition of LPS binding to TLR4 in IFNgamma-stimulated mouse RAW264.7 cells assessed as reduction in nitric oxide production pretreated for 2 hrs followed by LPS/IFNgamma stimulation and measured after 24 hrs.

For test [2], the target named is T1, Toll-like receptor 4 (Mus musculus). Briefly: Inhibition of LPS binding to TLR4 in IFNgamma-stimulated mouse RAW264.7 cells assessed as suppression of iNOS mRNA expression at 100 uM by qRT-PCR analysis.
The target is the same in test [3]. The test can be described thus: Inhibition of LPS binding to TLR4 in IFNgamma-stimulated mouse RAW264.7 cells assessed as suppression of COX2 mRNA expression at 100 uM by qRT-PCR analysis.
For test [4] the target is unchanged. Briefly: Inhibition of LPS binding to TLR4 in IFNgamma-stimulated mouse RAW264.7 cells assessed as reduction in COX2 expression at 100 uM by Western blot analysis.
Test [5] has the same target. Briefly: Inhibition of LPS binding to TLR4 in IFNgamma-stimulated mouse RAW264.7 cells assessed as effect on ratio of phosphorylated TAK1 to total TAK1 at 100 uM measured after 15 mins by Western blot analysis relative to beta-actin (reference value: 1.3).
For test [6] the target is unchanged. Briefly: Inhibition of LPS binding to TLR4 in IFNgamma-stimulated mouse RAW264.7 cells assessed as effect on ratio of phosphorylated TAK1 to total TAK1 at 100 uM measured after 30 mins by Western blot analysis relative to beta-actin (reference value: 3.7).
The target is the same in test [7]. The test can be described thus: Inhibition of LPS binding to TLR4 in IFNgamma-stimulated mouse RAW264.7 cells assessed as effect on ratio of phosphorylated TAK1 to total TAK1 at 100 uM measured after 60 mins by Western blot analysis relative to beta-actin (reference value: 3.1).
The target is the same in test [8]. The test can be described thus: Inhibition of LPS binding to TLR4 in IFNgamma-stimulated mouse RAW264.7 cells assessed as effect on ratio of phosphorylated ERK to total ERK at 100 uM measured after 15 mins by Western blot analysis relative to beta-actin (reference value: 0.8).
The target is the same in test [9]. Briefly: Inhibition of LPS binding to TLR4 in IFNgamma-stimulated mouse RAW264.7 cells assessed as effect on ratio of phosphorylated p38 to total p38 at 100 uM measured after 15 mins by Western blot analysis relative to beta-actin (reference value: 4.9).
For test [10] the target is unchanged. Briefly: Inhibition of LPS binding to TLR4 in IFNgamma-stimulated mouse RAW264.7 cells assessed as effect on ratio of phosphorylated p38 to total p38 at 100 uM measured after 120 mins by Western blot analysis relative to beta-actin (reference value: 2.2).
Test [11] has the same target. Briefly: Inhibition of LPS binding to TLR4 in IFNgamma-stimulated mouse RAW264.7 cells assessed as effect on ratio of phosphorylated JNK to total JNK at 100 uM measured after 15 mins by Western blot analysis relative to beta-actin (reference value: 2).
The target is the same in test [12]. The test can be described thus: Inhibition of LPS binding to TLR4 in IFNgamma-stimulated mouse RAW264.7 cells assessed as effect on ratio of phosphorylated JNK to total JNK at 100 uM measured after 120 mins by Western blot analysis relative to beta-actin (reference value: 1).
For test [13] the target is unchanged. Briefly: Inhibition of LPS binding to TLR4 in IFNgamma-stimulated mouse RAW264.7 cells assessed as effect on ratio of phosphorylated AKT to total AKT at 100 uM measured after 60 mins by Western blot analysis relative to beta-actin (reference value: 1.4).
Test [14] has the same target. Briefly: Inhibition of LPS binding to TLR4 in IFNgamma-stimulated mouse RAW264.7 cells assessed as effect on ratio of phosphorylated AKT to total AKT at 100 uM measured after 120 mins by Western blot analysis relative to beta-actin (reference value: 1.4).
Test [15] shares this target. Briefly: Inhibition of LPS binding to TLR4 in IFNgamma-stimulated mouse RAW264.7 cells assessed as effect on ratio of phosphorylated NFkappaB to total NFkappaB at 100 uM measured after 60 mins by Western blot analysis relative to beta-actin (reference value: 1).
Test [16] shares this target. Briefly: Inhibition of LPS binding to TLR4 in IFNgamma-stimulated mouse RAW264.7 cells assessed as effect on ratio of phosphorylated NFkappaB to total NFkappaB at 100 uM measured after 120 mins by Western blot analysis relative to beta-actin (reference value: 1.2).
Test [17] relates to RAW264.7. The test can be described thus: Inhibition of IFNgamma binding to IFNGR in LPS-stimulated mouse RAW264.7 cells assessed as effect on ratio of phosphorylated Stat1 to total Stat1 at 100 uM measured after 30 mins by Western blot analysis relative to beta-actin (reference value: 1.9).
Test [18] relates to RAW264.7. The test can be described thus: Inhibition of IFNgamma binding to IFNGR in LPS-stimulated mouse RAW264.7 cells assessed as effect on ratio of phosphorylated Stat1 to total Stat1 at 100 uM measured after 60 mins by Western blot analysis relative to beta-actin (reference value: 4.1).
Test [19] addresses T1, Toll-like receptor 4 (Mus musculus). Briefly: Displacement of Alexa fluor 488-conjugated LPS from TLR4 in mouse RAW264.7 cells at 100 uM pretreated for 2 hrs followed by Alexa fluor 488-conjugated LPS addition and measured after 30 mins by Hoechst 33342 staining based assay relative to control.

Take `C=C(C)[C@@H]1CC[C@]2(C)[C@H](CC=C3[C@@H]4CC(C)(C)CC[C@]4(C)CC[C@]32C(=O)O)[C@@]1(C)CCC(=O)O`: the figures for the inhibition entry in [1] and in [19] were “Dose-dependent effect” and 43%, respectively. Also, the inhibition result in [2] is “Active”. For the same compound, the inhibition entry in test [3] and in test [4] was “inactive” throughout. Further, the fold change (FC) in [5] was 1; in [6] it was 0.6; in test [7] it was 1; in [8] it was 0.8; in test [9] it was 4; in [10], 1.3. The fold change (FC) turned out to be 1 in test [11]; 1.1 in test [12]; 1 in test [13]; 0.9 in test [14]; 1 in test [15]; 1 in test [16]. Further, the fold change (FC) in the test on RAW264.7 [17] was determined as 1.2; in the test with RAW264.7 [18] it was 1.8.

The record behind these values is ChEMBL document CHEMBL4261619, “Sentulic acid isolated from Sandoricum koetjape Merr attenuates lipopolysaccharide and interferon gamma co-stimulated nitric oxide production in murine macrophage RAW264 cells” (Bioorg Med Chem Lett, 2018).
